Consider 2 molecules from patent US20120269870A1, “SWITCHABLE POLYMERS AND SURFACES WITH REVERSIBLY SWITCHABLE PROPERTIES” (University of Washington through its Center for …, priority 2011, published 2012).

The series is described as follows: Kinetic study between CB—OH and CB-Ring by 1H NMR. It is filed as physicochemical. To be noted: for half-life of CB-Ring (hydrolysis to CB—OH): buffer. As for the experimental part: Kinetic study between CB—OH and CB-Ring. The equilibrium conversion between the CB—OH and CB-Ring was monitored by ^1H NMR at various time points. To monitor the formation of CB-Ring, CB—OH powder was initially dissolved in TFA-d at a concentration of 0.2 M. The conversion from CB-Ring to CB—OH was studied by dissolving CB-Ring in either pH 7.3 or pH 10 buffer at a concentration of 0.2 M. These two buffers were made from 200 mM Na2CO3 in D2O and were titrated with DCl. Conversion was calculated based on the ratio of the characteristic peak for CB-Ring (1H, CH2═C(CH3)COOCH2CH(O—)CH2—) and a common peak of both structures (6H, —CH2N(CH3)2CH2—). In FIG. 5, the final conversion within 160 min was about 93% for all three conditions investigated. Because the integration error for ^1H NMR can be as large as 10%, a value of 93% essentially represented an almost full conversion.
Kinetic study between CB—OH and CB-Ring in acetic acid/pH=7.3 buffer. ^1H NMR was used to monitor the equilibrium conversion between the CB—OH and CB-Ring. CB—OH monomer was initially dissolved in [D]acetic acid at a concentration of 0.2 M. At various time points, the spectra were collected, and composition for the formed CB-Ring was calculated based on the ratio of the characteristic peaks for CB-Ring and CB—OH (FIG. 16). The equilibrated product (a mixture of CB-Ring and CB—OH) in [D]acetic acid was precipitated in ethyl ether, vacuum dried, and placed into pH=7.3 buffer made from 200 mM Na2CO3 in D2O titrated with DCl. CB-Ring was hydrolyzed to CB—OH at this condition and the composition for the CB-Ring at various time points were measured (FIG. 16).

SMILES strings stand for the structures.

On to `C=C(C)C(=O)OCC1C[N+](C)(C)CC(=O)O1` (centres unmarked) [CB-Ring, 2-(Methacryloyloxymethyl)-4,4-dimethyl-6-oxomorpholin-4-ium], for which the “half-life of CB-Ring (hydrolysis to CB—OH)” value (pH 7) is on record as “about 4 min” and the “half-life of CB-Ring (hydrolysis to CB—OH)” value (pH 10) is given as below 1 min. Also, the “final conversion to CB—OH within 160 min” value by setting is: (pH 7.3 buffer (200 mM Na2CO3 in D2O titrated with DCl)) “about 93%”; (pH 10 buffer (200 mM Na2CO3 in D2O titrated with DCl)) “about 93%”. In addition, for the setting “pH 7.3 buffer, product equilibrated 40 h in [D]HAc”, the “time to nearly full conversion (hydrolysis) of CB-Ring back to CB—OH” value is recorded as “less than 10 min”. The “time to complete conversion to the zwitterionic form” value (pH 10) was “less than 6 min”.

Turning to `C=C(C)C(=O)OCC(O)C[N+](C)(C)CC(=O)[O-]` (centres unmarked) [CB—OH, 2-((2-Hydroxy-3-(methacryloyloxy)propyl)dimethylammonio)acetate], the “conversion of CB—OH to CB-ring (in words)” value (TFA, 1 h) was “almost complete conversion”. Besides, under “TFA-d”, the “time to full conversion into the CB-Ring structure” value was at most 2 h. Besides, under “TFA-d solution, acidic environment, TFA-d / TFA, read-out: half-life of CB—OH (conversion to CB-Ring)”, the half-life at 0.2 M was around 14 min. Also, the “final conversion to CB-Ring within 160 min” value (TFA-d, 0.2 M) was “about 93%”. For the same molecule, the “conversion of CB—OH to CB-Ring” value ([D]HAc (acetic acid), 0.2 M, 20 h) was 50%.

Broadly, the half-life is how long it takes for the measured level to halve.
